Reference: the supplement of paper PMC8671470

system: KG-1; assay: cell viability (% survival relative to DMSO control, bortezomib = 0%); higher = less cytotoxic; details: 1 nM; 72 h
Method in brief: (§1)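 In 384-well plates pre-printed with compounds at 1, 10, 100, 1000 or 10000 nM, duplicate wells received cells from 10 AML and 5 CML lines at densities within the linear growth range. The plates stayed at 37 °C with 5% CO2 for 72 h before CellTiter-Glo luminescence was recorded. Each entry is averaged percent survival. Scaling placed vehicle at 100% and a 10 µM positive control at 0%.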

**Q.** For `O=C(O)C(=O)CBr` [3-bromopyruvic acid], which cell viability is on record?
**A.** The cell viability was 94.9%.

**Q.** Which cell viability does the source give for `NS(=O)(=O)c1ccc([N+](=O)[O-])cc1` [4-Nitrobenzenesulfonamide] here?
**A.** The cell viability was 107%.

**Q.** With `Cc1ccccc1C(C(=O)NC1CCCCC1)N(C(=O)Cn1ccnc1C)c1cccc(F)c1` (stereo unspecified) [AGI-5198] as the compound, how does the cell viability read?
**A.** Its cell viability is 102%.

**Q.** Which cell viability does the source give for `CC(C)(C#N)c1cc(Cn2cncn2)cc(C(C)(C)C#N)c1` [Anastrozole] here?
**A.** The cell viability was 98.4%.

**Q.** For `O=C(O)C1=CC(=C(c2ccc(O)c(C(=O)O)c2)c2ccc(O)c(C(=O)O)c2)C=CC1=O` [Aurintricarboxylic acid], which cell viability is on record?
**A.** Its cell viability is 104%.

same assay, conditions: 10 nM; 72 h

**Q.** `CN(C)C(=O)[C@H](O)[C@H](Cc1ccccc1)NC(=O)c1cc2cc(Cl)ccc2[nH]1` was tested. Which cell viability did it give?
**A.** The cell viability was 93.9%.

**Q.** How did the cell viability turn out when `COc1ccc(CNC(=O)Nc2ncc([N+](=O)[O-])s2)cc1` was run?
**A.** The cell viability was 146%.

**Q.** `CCOP(=O)(OCC)C(=Cc1cc(C(C)(C)C)c(O)c(C(C)(C)C)c1)P(=O)(OCC)OCC` was tested. Which cell viability did it give?
**A.** The cell viability was 91.2%.

**Q.** `COc1ccc(-c2ccccc2)cc1NS(=O)(=O)c1cc(Cl)cc(Cl)c1O` was tested. Which cell viability did it give?
**A.** The cell viability was 96.4%.

**Q.** For `C[C@H](NC(=O)c1sccc1OCc1ccc(Cl)cc1)c1ccccc1`, which cell viability is on record?
**A.** The cell viability was 103%.

**Q.** How did the cell viability turn out when `O=C(O)c1cc(Cl)cc(Cl)c1O` [3,5-Dichlorosalicylic Acid] was run?
**A.** The cell viability was 107%.

**Q.** For `O=C(O)C(=O)CBr` [3-bromopyruvic acid], which cell viability is on record?
**A.** Its cell viability is 93.3%.

**Q.** Which cell viability does the source give for `NS(=O)(=O)c1ccc([N+](=O)[O-])cc1` [4-Nitrobenzenesulfonamide] here?
**A.** The cell viability was 101%.

**Q.** For `Cc1ccccc1C(C(=O)NC1CCCCC1)N(C(=O)Cn1ccnc1C)c1cccc(F)c1` (stereo unspecified) [AGI-5198], which cell viability is on record?
**A.** The cell viability was 100%.

**Q.** How did the cell viability turn out when `CC(C)(C#N)c1cc(Cn2cncn2)cc(C(C)(C)C#N)c1` [Anastrozole] was run?
**A.** Its cell viability is 97.2%.

**Q.** `O=C(O)C1=CC(=C(c2ccc(O)c(C(=O)O)c2)c2ccc(O)c(C(=O)O)c2)C=CC1=O` [Aurintricarboxylic acid] was tested. Which cell viability did it give?
**A.** The cell viability was 94.5%.

same assay, conditions: 100 nM; 72 h

**Q.** `CN(C)C(=O)[C@H](O)[C@H](Cc1ccccc1)NC(=O)c1cc2cc(Cl)ccc2[nH]1` was tested. Which cell viability did it give?
**A.** Its cell viability is 95.2%.

**Q.** `COc1ccc(CNC(=O)Nc2ncc([N+](=O)[O-])s2)cc1` was tested. Which cell viability did it give?
**A.** Its cell viability is 93.8%.

**Q.** For `CCOP(=O)(OCC)C(=Cc1cc(C(C)(C)C)c(O)c(C(C)(C)C)c1)P(=O)(OCC)OCC`, which cell viability is on record?
**A.** The cell viability was 121%.

**Q.** `COc1ccc(-c2ccccc2)cc1NS(=O)(=O)c1cc(Cl)cc(Cl)c1O` was tested. Which cell viability did it give?
**A.** The cell viability was 108%.

**Q.** For `C[C@H](NC(=O)c1sccc1OCc1ccc(Cl)cc1)c1ccccc1`, which cell viability is on record?
**A.** The cell viability was 92.1%.

**Q.** Which cell viability does the source give for `O=C(O)c1cc(Cl)cc(Cl)c1O` [3,5-Dichlorosalicylic Acid] here?
**A.** Its cell viability is 85.6%.

**Q.** How did the cell viability turn out when `O=C(O)C(=O)CBr` [3-bromopyruvic acid] was run?
**A.** Its cell viability is 111%.

**Q.** How did the cell viability turn out when `NS(=O)(=O)c1ccc([N+](=O)[O-])cc1` [4-Nitrobenzenesulfonamide] was run?
**A.** Its cell viability is 92.4%.

**Q.** For `Cc1ccccc1C(C(=O)NC1CCCCC1)N(C(=O)Cn1ccnc1C)c1cccc(F)c1` (stereo unspecified) [AGI-5198], which cell viability is on record?
**A.** Its cell viability is 128%.

**Q.** How did the cell viability turn out when `CC(C)(C#N)c1cc(Cn2cncn2)cc(C(C)(C)C#N)c1` [Anastrozole] was run?
**A.** Its cell viability is 103%.

**Q.** With `O=C(O)C1=CC(=C(c2ccc(O)c(C(=O)O)c2)c2ccc(O)c(C(=O)O)c2)C=CC1=O` [Aurintricarboxylic acid] as the compound, how does the cell viability read?
**A.** The cell viability was 99.9%.

same assay, conditions: 1000 nM; 72 h

**Q.** How did the cell viability turn out when `CN(C)C(=O)[C@H](O)[C@H](Cc1ccccc1)NC(=O)c1cc2cc(Cl)ccc2[nH]1` was run?
**A.** Its cell viability is 114%.

**Q.** With `COc1ccc(CNC(=O)Nc2ncc([N+](=O)[O-])s2)cc1` as the compound, how does the cell viability read?
**A.** The cell viability was 94.8%.

**Q.** For `CCOP(=O)(OCC)C(=Cc1cc(C(C)(C)C)c(O)c(C(C)(C)C)c1)P(=O)(OCC)OCC`, which cell viability is on record?
**A.** Its cell viability is 91.2%.

**Q.** `COc1ccc(-c2ccccc2)cc1NS(=O)(=O)c1cc(Cl)cc(Cl)c1O` was tested. Which cell viability did it give?
**A.** Its cell viability is 83.8%.

**Q.** For `C[C@H](NC(=O)c1sccc1OCc1ccc(Cl)cc1)c1ccccc1`, which cell viability is on record?
**A.** Its cell viability is 91.9%.

**Q.** `O=C(O)c1cc(Cl)cc(Cl)c1O` [3,5-Dichlorosalicylic Acid] was tested. Which cell viability did it give?
**A.** Its cell viability is 117%.

**Q.** With `O=C(O)C(=O)CBr` [3-bromopyruvic acid] as the compound, how does the cell viability read?
**A.** Its cell viability is 96%.

**Q.** With `NS(=O)(=O)c1ccc([N+](=O)[O-])cc1` [4-Nitrobenzenesulfonamide] as the compound, how does the cell viability read?
**A.** Its cell viability is 96.1%.

**Q.** Which cell viability does the source give for `Cc1ccccc1C(C(=O)NC1CCCCC1)N(C(=O)Cn1ccnc1C)c1cccc(F)c1` (stereo unspecified) [AGI-5198] here?
**A.** Its cell viability is 94.9%.

**Q.** `CC(C)(C#N)c1cc(Cn2cncn2)cc(C(C)(C)C#N)c1` [Anastrozole] was tested. Which cell viability did it give?
**A.** Its cell viability is 92%.

**Q.** With `O=C(O)C1=CC(=C(c2ccc(O)c(C(=O)O)c2)c2ccc(O)c(C(=O)O)c2)C=CC1=O` [Aurintricarboxylic acid] as the compound, how does the cell viability read?
**A.** The cell viability was 89.6%.

same assay, conditions: 10000 nM; 72 h

**Q.** How did the cell viability turn out when `CN(C)C(=O)[C@H](O)[C@H](Cc1ccccc1)NC(=O)c1cc2cc(Cl)ccc2[nH]1` was run?
**A.** Its cell viability is 80.3%.

**Q.** With `COc1ccc(CNC(=O)Nc2ncc([N+](=O)[O-])s2)cc1` as the compound, how does the cell viability read?
**A.** Its cell viability is 173%.

**Q.** `CCOP(=O)(OCC)C(=Cc1cc(C(C)(C)C)c(O)c(C(C)(C)C)c1)P(=O)(OCC)OCC` was tested. Which cell viability did it give?
**A.** The cell viability was 67%.

**Q.** How did the cell viability turn out when `COc1ccc(-c2ccccc2)cc1NS(=O)(=O)c1cc(Cl)cc(Cl)c1O` was run?
**A.** Its cell viability is 99.2%.

**Q.** With `C[C@H](NC(=O)c1sccc1OCc1ccc(Cl)cc1)c1ccccc1` as the compound, how does the cell viability read?
**A.** Its cell viability is 61.4%.

**Q.** How did the cell viability turn out when `O=C(O)c1cc(Cl)cc(Cl)c1O` [3,5-Dichlorosalicylic Acid] was run?
**A.** The cell viability was 96.8%.

**Q.** How did the cell viability turn out when `O=C(O)C(=O)CBr` [3-bromopyruvic acid] was run?
**A.** Its cell viability is 106%.

**Q.** How did the cell viability turn out when `NS(=O)(=O)c1ccc([N+](=O)[O-])cc1` [4-Nitrobenzenesulfonamide] was run?
**A.** Its cell viability is 92.3%.

**Q.** For `Cc1ccccc1C(C(=O)NC1CCCCC1)N(C(=O)Cn1ccnc1C)c1cccc(F)c1` (stereo unspecified) [AGI-5198], which cell viability is on record?
**A.** Its cell viability is 94.5%.

**Q.** For `CC(C)(C#N)c1cc(Cn2cncn2)cc(C(C)(C)C#N)c1` [Anastrozole], which cell viability is on record?
**A.** Its cell viability is 93.8%.

**Q.** With `O=C(O)C1=CC(=C(c2ccc(O)c(C(=O)O)c2)c2ccc(O)c(C(=O)O)c2)C=CC1=O` [Aurintricarboxylic acid] as the compound, how does the cell viability read?
**A.** Its cell viability is 78.9%.

system: LAMA-84; assay: as above; details: 1 nM; 72 h
Method in brief: as §1

**Q.** Which cell viability does the source give for `CN(C)C(=O)[C@H](O)[C@H](Cc1ccccc1)NC(=O)c1cc2cc(Cl)ccc2[nH]1` here?
**A.** The cell viability was 94.6%.

**Q.** For `COc1ccc(CNC(=O)Nc2ncc([N+](=O)[O-])s2)cc1`, which cell viability is on record?
**A.** The cell viability was 109%.

**Q.** Which cell viability does the source give for `CCOP(=O)(OCC)C(=Cc1cc(C(C)(C)C)c(O)c(C(C)(C)C)c1)P(=O)(OCC)OCC` here?
**A.** The cell viability was 94.8%.

**Q.** Which cell viability does the source give for `COc1ccc(-c2ccccc2)cc1NS(=O)(=O)c1cc(Cl)cc(Cl)c1O` here?
**A.** Its cell viability is 102%.

**Q.** With `C[C@H](NC(=O)c1sccc1OCc1ccc(Cl)cc1)c1ccccc1` as the compound, how does the cell viability read?
**A.** Its cell viability is 94.2%.

**Q.** Which cell viability does the source give for `O=C(O)c1cc(Cl)cc(Cl)c1O` [3,5-Dichlorosalicylic Acid] here?
**A.** Its cell viability is 105%.

**Q.** For `O=C(O)C(=O)CBr` [3-bromopyruvic acid], which cell viability is on record?
**A.** The cell viability was 90.8%.

**Q.** With `NS(=O)(=O)c1ccc([N+](=O)[O-])cc1` [4-Nitrobenzenesulfonamide] as the compound, how does the cell viability read?
**A.** The cell viability was 99.5%.

**Q.** `Cc1ccccc1C(C(=O)NC1CCCCC1)N(C(=O)Cn1ccnc1C)c1cccc(F)c1` (stereo unspecified) [AGI-5198] was tested. Which cell viability did it give?
**A.** The cell viability was 97.6%.

**Q.** `CC(C)(C#N)c1cc(Cn2cncn2)cc(C(C)(C)C#N)c1` [Anastrozole] was tested. Which cell viability did it give?
**A.** The cell viability was 93.5%.

**Q.** Which cell viability does the source give for `O=C(O)C1=CC(=C(c2ccc(O)c(C(=O)O)c2)c2ccc(O)c(C(=O)O)c2)C=CC1=O` [Aurintricarboxylic acid] here?
**A.** Its cell viability is 105%.

same assay, conditions: 10 nM; 72 h

**Q.** For `CN(C)C(=O)[C@H](O)[C@H](Cc1ccccc1)NC(=O)c1cc2cc(Cl)ccc2[nH]1`, which cell viability is on record?
**A.** Its cell viability is 97.6%.
